Measurements published in patent US9510596B2, “Binary pesticidal and fungicidal mixtures” (BAYER CROPSCIENCE AG, priority 2012, dated 2016).

System: Phakopsora pachyrhizi
Test: Phakopsora test (soybean)/seed treatment
Type: in vivo
Details: greenhouse, infected leaf area per plant
Description: The test is performed under greenhouse conditions.
Soy bean seeds, treated with the active compound or compound combinations, solved in N-methyl-2-pyrrolidon and diluted with water to the desired dosages, were sown in 6*6 cm pots containing 4 cm of a 1:1 mix of steamed field soil and sand.
The plants were grown at 22° C. and 90% relative humidity in a greenhouse chamber. 21 days old plants were inoculated with an aqueous spore suspension of the causal agent of soybean rust (Phakopsora pachyrhizi) and stay for 24 h without light in an incubation cabinet at approximately 24° C. and a relative atmospheric humidity of 95%. The plants remain in the incubation cabinet at approximately 24° C. and a relative atmospheric humidity of approximately 80% and a day/night interval of 12 h.
Assessment consisted of evaluation of infected leaf area per plant. 0% means an efficacy which corresponds to that of the control, while an efficacy of 100% means that no disease is observed.

## CNC(=O)c1cc(C#N)cc(C)c1NC(=O)c1cc(Br)nn1-c1ncccc1Cl [2.2, Cyantraniliprole, reference compound]
Application rate 0.5 ppm a.i.
  Efficacy in % found*: 0%

## CC1CC(C)(C)c2cccc(NC(=O)c3cn(C)nc3C(F)F)c21 (stereo not drawn) [(I-1), 3-(difluoromethyl)-1-methyl-N-(1,1,3-trimethyl-2,3-dihydro-1H-inden-4-yl)-1H-pyrazole-4-carboxamide]
Application rate 25 ppm a.i., 0% = control, 100% = no disease
  Efficacy in % found*: 25%

## CNC(=O)c1cc(C#N)cc(C)c1NC(=O)c1cc(Cn2nnc(C(F)(F)F)n2)nn1-c1ncccc1Cl [2.5, 1-(3-chloropyridin-2-yl)-N-[4-cyano-2-methyl-6-(methylcarbamoyl)phenyl]-3-{[5-(trifluoromethyl)-2H-tetrazol-2-yl]methyl}-1H-pyrazole-5-carboxamide]
Application rate 2.5 ppm a.i.
  Efficacy in % found*: 13%
